Experimental findings from patent US8758769B2, “Composition for preventing and treating acetaminophen inducing liver injury comprising the protein extract from Porphyra yezoensis” (Pukyong National University Industry Academic Cooperation …, priority 2006, dated 2014) are described below.

What all share (type): cell-based
The subject of data set [1] is caspase-3, PARP, Bcl-2 in liver cell. As to the kind of experiment: Western blot of cell apoptosis related proteins in liver cell treated by AAP. Particulars: liver cell treated by AAP according to the concentration, 24 hours. How it is done:
Through the above results, since it is confirmed that the cell apoptosis of the liver cell is induced by AAP, the liver cell is treated by means of AAP according to the concentration and the western blot is executed to observe the expression modes of the protein related to the cell apoptosis. For this, a cell is cultured at a culture dish of 100-mm diameter until it become a confluent monolayer of a confluent state by a medium containing 10% FBS. Thereafter, the medium is replaced with a serum free medium and cultured for 24 hours. After 24 hours, each sample is treated by a serum free medium added according to the concentration and cultured for 24 hours. The culture solution is removed, then washed by the cold PBS solution, and thereafter the cell is recovered through the cell lysate buffer solution containing 1% triton. After the centrifugal process, 4× Laemmli sample buffer (13.3% SDS, 0.4M Tris, 0.013% bromopheno blue, 40% glycerol, pH 6.5) is added to the obtained upper layer solution by 1× of concentration and then an electrophoresis manner is performed in 12.5% SDS-polyacrylamid gel by means of Mighty Small II Apparatus (Hopper Science Instruments, USA). After the electrophoresis manner, the protein separated into the gel is transferred to Immobilon-P membrane (Milipore corporation, the pore size: 0.1[…], USA) by means of Semi-dry Transfer unit, Sigma, USA), reacted at the room temperature for 2 hours in 1×TBS (Tris-buffered saline; 20 mM Tris-base, 137 mM NaCl, 1M HCl) containing 1% BSA, and thereafter left for a night at 4° C. by a primary antibody. Thereafter, the protein is washed by three times at each 10 minutes by TBS-T (Tris-buffered saline, 0.1% Tween 20) and reacted at the room temperature for 1 hour together with the anti-rabbit or anti-mouse IgG-conjugated horseradish peroxide secondary antibody diluted by 1:20,000. […]
On the technique in general: Immunoblotting shows a protein as a band on a membrane.

A further data set concerns HepG2 liver cell. As to the kind of experiment: LDH activity, toxicity of HepG2 liver cell by AAP treatment. Particulars: HepG2, AAP 10, 20 and 40 mM. As to the method: To examine the toxicity of the liver cell by the AAP treatment, the activity of LDH is measured. That is, 100[…] per a well with the concentration of 2×10^4 cells/ml is divided into 96-well microplates (palcon, USA) and cultured. After 24 hours, a medium is replaced with an MEM medium including 1% FBS, then cultured again for 24 hours, and thereafter treated by an assay medium of 100[…] and AAP 100[…] (10, 20 and 40 mM). The obtained upper solution of 100[…] is moved into a new 96-well microplate, then 100[…] of the reaction mixture (solution I 250[…]+solution II 11.25[…]) is added to the new 96-well microplate. Thereafter, at the state that the light is intercepted by foil, a reaction is progressed for 30 minutes at 15˜25° C. Thereafter, the absorbance at 490 nm is measured by using an automatic ELIZA reader.

For a further data set, the system named is HepG2 cell. As to the kind of experiment: Cell apoptosis of the liver cell line by AAP (DAPI dyeing, DNA fragmentation). Conditions: HepG2, culture for 24 hours with AAP. The source says: Accordingly, to confirm that the cell proliferation inhibition effect by AAP is a phenomenon by the cell apoptosis, the cell with AAP and cell with no AAP are washed by PBS by means of the characteristics in which only DNA within the cell nucleus, especially, only the cell apoptosis DNA is dyed. Thereafter, the cells are dyed by the DAPI solution and then observed by a fluorescent microscopy.
Specifically, the HepG2 cell treated by the seaweed protein is washed by PBS, fixed at the room temperature for 10 minutes by 3.7% of paraformaldehyde, and dyed by means of the 4,6-diamindino-2-phenylindole (DAPI)(sigma) solution as fluorescent materials for 10 minutes. These cells are again washed by twice and the form change of the nucleus thereof is compared with that of the normal group by means of a fluorescence microscope.
To examine the DNA fragmentation phenomenon, the seaweed protein purified by the example 1 is added to the liver cell by concentration (0˜100[…]/□), then cultured for 24 hours, and thereafter mixed with the homogenate (nuclear lysis buffer, 100 mM NaCl2, 40 mM Tris-Cl, pH 7.4, 20 mM EDTA, 0.5% SDS). […] 10[…] of DNA is treated by an electrophoresis manner (50V, 2 hours) in the agarose cell, dyed by editium bromide, and measured by means of ultraviolet rays and the like.

As to `CC(=O)Nc1ccc(O)cc1` [AAP, Acetaminophen], in data set [1], the “Caspase-3 cleavage/activity (western blot, FIG. 8)” value was “cleaved and then the activity is increased”; the “Expression of Bcl-2 (western blot, FIG. 8)” value is reported as “inhibited according to the increase of the AAP concentration”; the “PARP cleavage (western blot, FIG. 8)” value is given as “cleaved from 116 kDa to 85 kDa”. Besides, the “Activity of LDH (degree of liver cell injury)” value in the data set with HepG2 liver cell is recorded as “increased in proportion to the AAP concentration”. Also, in the data set with HepG2 cell, the “Cell apoptosis by DAPI dyeing (FIG. 8)” value is “many cell apoptosis modes with the red color are formed” and the “DNA fragmentation in liver cell (FIG. 8)” value is on record as “The DNA fractions are confirmed identically”.
